# According to ChEMBL document CHEMBL1201862, “PubChem BioAssay data set” (2004):
#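 Cultured in 96-well plates, cells were exposed to test compound for 48 hours across five concentrations. GI50 = concentration required for 50% inhibition of growth.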 The source made the active and inactive calls. Cut-off read from the data, not from the text of the source: active = GI50 up to about 1.1 µM and inactive = higher.
# Columns and labels:
# Assay in all cases: DTP human tumour cell line panel, 48 h
# SNB-78 = test system: SNB-78
# DMS-114 = test system: DMS-114
# RXF 631 = test system: RXF 631
# 786-0 = test system: 786-0
# T47D = test system: T47D
# BT-549 = test system: BT-549
# MDA-MB-231 = test system: MDA-MB-231
# PC-3 = test system: PC-3
# Hs-578T = test system: Hs-578T
Compound,GI50 (SNB-78),GI50 (DMS-114),GI50 (MDA-MB-231),GI50 (PC-3),other results
C[C@H]1[C@@H]2C[C@@H]3O[C@@]34[C@H]3CCC5Cc6nc7c(nc6C[C@@]5(C)[C@]3(O)CC(=O)[C@@]24CO[C@]12OC(C)(C)C[C@@H]2O)CC1CC[C@@H]2C3=C[C@H]4O[C@@]5(OC(C)(CO)C[C@@H]5O)[C@H](C)[C@@]4(O)[C@]3(C)[C@@H](O)CC2[C@]1(C)C7 (stereo partly specified),0.00792 µM (active),0.0119 µM (active),–,–,–
O=C(O)CCCCCCCCC(=O)O [SEBACIC ACID],> 500 µM (inactive),50 µM (inactive),–,–,–
CCC1CN2CCC1CC2 (stereo unspecified),> 100 µM (inactive),> 100 µM (inactive),–,–,–
COc1cc(C(C)c2cc3c(cc2OCCO)OCO3)cc(OC)c1OC (stereo unspecified),12.2 µM (inactive),0.562 µM (active),–,–,–
COc1c(Cl)cc(S(=O)O)cc1Cl,> 100 µM (inactive),> 100 µM (inactive),–,–,–
CC(C)CCC1CC2C(=O)N(c3ccccc3)C(=O)C2c2[nH]c3ccccc3c21 (stereo unspecified),3.45 µM (inactive),0.6 µM (active),–,–,GI50 (RXF 631): 1.26 µM (inactive); GI50 (786-0): 2.88 µM (inactive)
COc1cc(C2c3[nH]c4ccccc4c3[C@@H](Nc3ccc(F)cc3)[C@H]3COC(=O)N23)cc(OC)c1O (stereo partly specified),–,–,3.44 µM (inactive),1.91 µM (inactive),GI50 (T47D): 2.25 µM (inactive); GI50 (BT-549): 1.36 µM (inactive); GI50 (Hs-578T): 0.0962 µM (active)
O=C1C[C@@H](C(=O)OCc2ccccc2)NC(=O)C[C@@H](C(=O)OCc2ccccc2)NC(=O)C[C@@H](C(=O)OCc2ccccc2)N1,–,–,14 µM (inactive),> 100 µM (inactive),GI50 (786-0): 21 µM (inactive); GI50 (T47D): > 100 µM (inactive); GI50 (BT-549): > 100 µM (inactive); GI50 (Hs-578T): 13.1 µM (inactive)
CN1C[C@H]2[C@@H](C1=O)[C@H](c1ccccc1)ON2C,–,–,> 100 µM (inactive),> 100 µM (inactive),GI50 (T47D): > 100 µM (inactive); GI50 (Hs-578T): > 100 µM (inactive)
COc1ccc(-c2nnc3c4ccccc4sn23)cc1,41.9 µM (inactive),17.1 µM (inactive),–,–,–
Brc1ccc(C2CC(c3cccc4ccccc34)=Nc3ccccc3S2)cc1 (stereo unspecified),82 µM (inactive),–,–,–,–
O=C(Nc1ccc(C2=NCCN2)cc1)c1cncc(C(=O)Nc2ccc(C3=NCCN3)cc2)c1,> 100 µM (inactive),> 100 µM (inactive),–,–,–
O=C(O)/C=C/c1c[nH]cn1,–,> 500 µM (inactive),–,–,–
CCCCCCCCC[C@@H]1C[C@H](O)[C@H](Cc2ccccc2)N1C(=O)OC(C)(C)C,22.8 µM (inactive),16.9 µM (inactive),–,–,–
Cn1c2ccccc2c(=O)c2c(O)cc3c(c21)C=CC(C)(C)O3 [NORACRONYCINE],> 25 µM (inactive),> 25 µM (inactive),–,–,–
N#CSCC1COc2ccccc2O1 (stereo unspecified),–,–,> 10 µM (inactive),> 10 µM (inactive),GI50 (T47D): > 10 µM (inactive); GI50 (Hs-578T): > 10 µM (inactive)
CC1=C2C(=C[C@H]3[C@]4(C)CCCC(C)(C)[C@H]4CC[C@]34O[C@H]24)OC1=O,–,–,> 100 µM (inactive),> 100 µM (inactive),GI50 (786-0): > 100 µM (inactive); GI50 (BT-549): > 100 µM (inactive)
CN(CCO)CCC1COc2ccccc2O1 (stereo unspecified),–,–,> 10 µM (inactive),> 10 µM (inactive),GI50 (T47D): > 10 µM (inactive); GI50 (Hs-578T): > 10 µM (inactive)
